Patent US6410597B1, “Hydroxyalkyl amide analogs of ceramide” (Virginia Commonwealth University, priority 2000, dated 2002)
“Also recorded” adds a separate entry of the source.

Columns and labels:
[1] = General toxicity during in vivo treatment; settings: up to a total of 200 mg/kg/day, treatment for 14 days
Experimental: (§1) The intraperitoneal administration of ceramic analogs started one day after grafting and was performed twice per day with 0.7 ml of 2 mM S16 or 4 mM S18 corresponding to 50-100 mg/kg per mouse. The compounds were predissolved in dimethylsulfoxide (DMSO) at a maximum concentration of 250 mM and then serially diluted to 2 mM S16 or 4 mM S18 in 20% bovine serum albumin (BSA), 500 μM sodium stearate, 0.9% sodium chloride.
(§2) Athymic mice were grafted with neuroblastoma tumors by subcutaneous injection and treated by intraperitoneal or intratumoral injection of S16 as described in Methods. Control mice received no treatment, or treatment with C-16 EA. […] Furthermore, the first measurable tumors appeared 2 days later in mice treated with S16 than in control mice.

[2] = test system: RT2 cells; assay: MTS proliferation assay of malignant glioma cells; format: cell-based, rat; settings: RT2, 6 days; S16 100 μM, S18 100 or 200 μM
Experimental: (§3) FIGS. 5A, 5B and 5C. MTS proliferation assay of in vitro brain tumor cells (malignant glioma) treated with structural analogues of ceramic. (•) control; (∘) S16, 100 μM; (▾) S18, 200 μM; (∇) S18, 100 μM. 5A: U87 cells (6 days); 5B: RT2 cells (6 days); 5C: T98 cells (5 days).
(§4) Murine neuroblastoma x rat glioma NG108-15 and murine neuroblastoma x rat dorsal root ganglion F-11 cells were kindly provided by Drs. Robert Ledeen (New Jersey School of Medicine, Newark, N.J.) and Glyn Dawson (University of Chicago, Chicago, Ill.), respectively. PC12 (rat adrenal pheochromocytoma, ATCC CRL 1721) cells were purchased from the American Type Culture Collection (Manassas, Va.). U87 and T98 human glioma cells were purchased from the American Type Culture Collection (Manassas, Va.). RT2 rat glioma cells were a gift.
(§5) CU87, T98 or RT2 malignant glioma cells (750/well) were plated onto 96-well plates and allowed to grow for 5-6 days in the presence of the ceramic analogues S16, S18 or B16, or control media. The CellTiter96® Aqueous One cell proliferation assay (Promega, Inc.) was used to quantify glioma cell proliferation. In this assay, the amount of formazan product (490 nm absorbance) made from the conversion of [3-(,5-dimethyl-2-yl)-5-(3-carboxymethoxyphenyl)-2-(4-sulfophenyl)-2H-tetrazolium, inner salt (MTS) by dehydrogenase enzymes of metabolically active cells is directly proportional to the number of living cells in culture.
(§6) The effect of the compounds S16, S18, and B16 on the ability of U87, RT2 and T98 glioma cells to proliferate in vitro was investigated as described in Methods and the results are presented in FIGS. 5A, 5B and 5C, respectively.

[3] = test system: NG108-15 or F-11 neuroblastoma tumors; assay: In vivo tumor model in athymic mice; set-up: species or system athymic NU/NU mice
Experimental: A total of 1×10^6 NG108-15 or F-11 cells in 200 μl of phosphate buffered saline (PBS) was subcutaneously injected into each side of athymic NU/NU mice (Harlan) for generation of an in vivo brain tumor model in mouse skin. The resulting tumors were treated either intraperitoneally or by direct intratumor injection of ceramic analogs. Tumor growth rates and treatment results were the same within experimental error regardless of whether NG108-15 or F-11 cells were used.
Tumor growth was monitored by caliper measurement. The tumor volume was calculated by the formula: tumor size [mm^3]=(tumor width [mm])^2×tumor length [mm].
as §1
The intratumoral administration of ceramic analogs was initiated when tumor size was 30-50 mm^3 and consisted of daily injections of a 10-fold concentrated analog solution prepared as described above for S16 or of 2 mM B16 in 0.9% sodium chloride. The final concentration was calculated to be 200 μM when applied in a volume of 10% of the tumor size. Tumor volume was measured and calculated as described above.
as §2, with “mice. […]” for “mice.”
FIG. 9. […] The tumor volume was determined by caliper measurement and was about 4 ml for the mouse on the left side (untreated for 10 days) and 2 ml for the mouse on the right side (treated for 14 days).

[4] = test system: NG108-15 cells; assay: Alteration of ceramic and sphingolipid levels (HPTLC) upon incubation with S16; format: cell-based, murine neuroblastoma x rat glioma
Excerpt: as §4
(§7) Lipids were prepared and analyzed by HPTLC as described previously (Freischutz et al., 1997).
(§8) NG108-15 or F-11 cells were incubated with 100 μM S16 overnight and endogenous ceramic analyzed by HPTLC of neutral lipids corresponding to 200 μg of cellular protein applied per lane. The HPTLC plate was developed in CHCl3/HOAc (9:1), v/v) and sphingolipids stained with cupric acetate/phosphoric acid reagent. Levels of ceramic, sphingomyelin, and neutral lipids were determined by densitometric analysis and comparison with various amounts of standard lipids. […] However, the concentration of ceramic in F-11 and NG108-15 cells at 20% confluence was elevated by about 50-80%.

[5] = test system: F-11 cells; assay: as above; format: cell-based, murine neuroblastoma x rat dorsal root ganglion
Excerpt: as §4, §7, §8

[6] = test system: T98 cells; assay: MTS proliferation assay of malignant glioma cells; format: cell-based, human; settings: T98, 5 days; S16 100 μM, S18 100 or 200 μM
Experimental: as §3, §4, §5, §6

[7] = test system: U87 cells; assay: MTS proliferation assay of malignant glioma cells; format: cell-based, human; settings: U87, 6 days; S16 100 μM, S18 100 or 200 μM
Experimental: as §3, §4, §5, §6

[8] = test system: NG108-15 cells; assay: Cell density-dependent DNA fragmentation (laddering); format: cell-based, murine neuroblastoma x rat glioma; settings: 100 μM S16, 15 hours; 30% confluent compared with 100% confluent cells
Experimental: (§9) Apoptosis was analyzed by DNA fragmentation, in situ terminal nucleotidyl transferase assay, and staining of condensed chromatin with Hoechst dye 33258 as described elsewhere (Ji et al., 1995; Bieberich et al., 1999) and as further outlined below. The degree of cell death was monitored by determination of the number of floating cells and cells stained with 0.4% trypan blue (Wang et al., 1999).
(§10) The dependence of the rate of S16 induced apoptosis of NG108-15 cells on cell density was investigated as described in methods and the results are given in FIG. 3. […] This observation was confirmed by determination of cell density-dependent DNA fragmentation (laddering) upon incubation with S16. Cells were incubated with 100 μM S16 for 15 hours.

[9] = test system: Neuroblastoma cells (NG108-15 or F-11); assay: Effect of alkyl chain length on apoptotic potential of N-acylated compounds; format: cell-based; settings: 30% confluence, overnight, various concentrations
Experimental: as §9
Neuroblastoma cells (NG108-15 or F-11) were grown to 30% confluence and incubated overnight with various concentrations of N-acyl compounds containing carbon chains with 8, 16 and 18 carbons, as well as C16 ethanolamine. The floating cells were harvested from the medium and the amount of cellular protein determined for calculation of dead cells. In addition, cell death was quantified by staining with trypan blue. The attached cells were stained with Hoechst dye 33258 for calculation of apoptotic cells with condensed chromatin. The number of apoptotic cells was determined by counting 100 stained cells in 20 different areas on tissue culture dishes from three independent experiments.
The effect of alkyl chain length on the apoptotic potential of S16 and two compounds differing only in the length of the alkyl chains, S8 (8 carbons)and S18 (18 carbons) was investigated as described in Methods. Also, the contribution of the second β-hydroxymethyl group of S16 was analyzed by comparison with the effect of C16 EA (C16 ethanolamine) on apoptosis. […] As such, the preferred length is 12-20 carbons.

[10] = test system: NG108-15 cells; assay: Dependence of S16 induced apoptosis on cell density; format: cell-based, murine neuroblastoma x rat glioma; settings: 100 μM S16 overnight; cell density below 20% or above 50%
Experimental: as §9
Cells were grown to varying degrees of confluence (100%=1.0×10^5 cells/cm^2) and then incubated overnight with 100 μM S16. The floating cells were harvested from the medium and the amount of cellular protein determined for calculation of dead cells. In addition, cell death was quantified by staining with trypan blue. The attached cells were stained with Hoechst dye 33258 for calculation of apoptotic cells with condensed chromatin. The number of apoptotic cells was determined by counting 100 stained cells in 20 different areas on tissue culture dishes from three independent experiments.
as §10

[11] = test system: PC12 cells; assay: Dependence of apoptosis on cell differentiation (Hoechst dye 33258 staining); format: cell-based, rat; settings: 24 hours; undifferentiated vs forskolin-differentiated PC12 cells
Excerpt: as §4, §9
The dependence of apoptosis upon differentiation of cells was analyzed by incubating undifferentiated PC12 cells and PC12 cells which had been induced to differentiate with S16 for 24 hours. Differentiation was induced by preincubation with 10 μM forskolin for 48 hrs. The extent of apoptosis was determined by staining with Hoechst dye 33258.
The apoptotic potential of S16 with respect to cell differentiation was investigated as described in Methods.

[12] = test system: F-11 cells; assay: Cell density-dependent DNA fragmentation (laddering); format: cell-based, murine neuroblastoma x rat dorsal root ganglion; settings: 100 μM S16, 15 hours; 30% confluent compared with 100% confluent cells
[13] = 100 μM S16, 100% confluent cells
[14] = 100 μM S16 overnight, cells at 20% confluence

Row | SMILES | effects of general toxicity [1] | cellular proliferation [2] | final size of the tumors relative to untreated or C16-EA treated mice ([3]; intraperitoneal or intratumoral injection) | delay of appearance of first measurable tumors versus control mice ([3]; mice treated with S16) | alteration of endogenous ceramic [4, 13] | alteration of the glycosphingolipid composition ([4]; 100 μM S16 overnight) | alteration of the level of sphingomyelin ([4]; 100 μM S16 overnight) | concentration of ceramic elevated [4, 14] | alteration of endogenous ceramic [5, 13] | alteration of the glycosphingolipid composition ([5]; 100 μM S16 overnight) | alteration of the level of sphingomyelin ([5]; 100 μM S16 overnight) | concentration of ceramic elevated [5, 14] | cellular proliferation [6] | cellular proliferation [7] | laddering of 200-base pair fragments [8] | apoptotic potential [9] | degree of apoptosis [10] | apoptosis (staining with Hoechst dye) [11] | laddering of 200-base pair fragments [12] | tumor volume (caliper measurement) ([3]; F-11 grafts, intra-peritoneal 0.7 ml of 4 mM twice a day for 14 days, untreated mouse about 4 ml at 10 days)
1 | CCCCCCCCCCCCCCCC(=O)NC(CO)CO [S16, N-palmitoyl serinol] | No effects of general toxicity were observable | marked decrease in cellular proliferation | 30-35% | 2 days | no significant alteration | no detectable alteration | no detectable alteration | 50-80% | no significant alteration | no detectable alteration | no detectable alteration | 50-80% | marked decrease in cellular proliferation | marked decrease in cellular proliferation | increased markedly | optimal | markedly decreased | only undifferentiated cells showed the typical staining | increased markedly | –
2 | CCCCCCCC/C=C\CCCCCCCC(=O)NC(CO)CO [S18, N-oleoyl serinol] | – | marked decrease in cellular proliferation; also recorded: virtually eliminating the proliferation | – | – | – | – | – | – | – | – | – | – | marked decrease in cellular proliferation; also recorded: virtually eliminating the proliferation | marked decrease in cellular proliferation; also recorded: virtually eliminating the proliferation | – | optimal | – | – | – | ~2 mL
3 | CCCCCCCCCCCCCCCC(=O)N(CCO)CCO [B16, N,N-bis(2-hydroxyethyl) palmitamide] | – | marked decrease in cellular proliferation; also recorded: virtually eliminating the proliferation | – | – | – | – | – | – | – | – | – | – | marked decrease in cellular proliferation; also recorded: virtually eliminating the proliferation | marked decrease in cellular proliferation; also recorded: virtually eliminating the proliferation | – | – | – | – | – | –
4 | CCCCCCCCCCCCCCCC(=O)NCCO [C16 EA, N-palmitoyl ethanolamine, reference compound] | – | – | – | – | – | – | – | – | – | – | – | – | – | – | – | almost no apoptosis | – | – | – | –
